According to patent US11253497B2, “Use of derivatives of polyunsaturated fatty acids as medicaments” (Lipopharma Therapeutics, S.L., priority 2009, dated 2022):
pIC50: −log10 of the molar value.

Tests used:
P19 cells = experiment: NMDA-induced neuronal death in P19 cells; assay type: cell-based; settings: NMDA alone 100% death, control without NMDA 0%; negative values = proliferation
α-synuclein = experiment: Expression of α-synuclein in neuronal cultures (cells P19); assay type: cell-based; settings: untreated cells 100%
COX-2 = experiment: Expression of COX-2 in LPS-stimulated monocytes in culture; assay type: cell-based, human; settings: positive control with LPS 100%
Text: FIG. 5A also presents a drawing showing the COX-2/COX-1 relationship as % of control (Y axis) for the following compounds (X-axis): OOA (2-hydroxy-oleic acid), OLA (182A1), OALA (183A1), OGLA (183A2), OARA (204A1), OEPA (205A1), ODHA (226A1). […] The reduction of this factor is directly related to the anti-inflammatory medication. The compounds are the same as in the left pane.
(§1) Cyclooxygenase (COX) is an enzyme that can bind to membranes, taking certain lipids from there and catalyze its conversion into molecules that can have inflammatory activity. The binding of this enzyme to membrane lipids is due in part to the membrane lipid structure. The increased activity of COX 1 and 2 isoforms has been associated with the etiopathology of a number of inflammatory diseases by […] arachidonic acid metabolism to produce pro-inflammatory lipid mediators. The D-PUFA compounds of the present invention produced a series of cellular signals that alter the metabolism of arachidonic acid and, as a result, they inhibit the activity and expression of COX in monocytes in culture (Table 14 and FIG. 5A). […] For this purpose, C57BL6/J mice were treated with the various derivatives (200 mg/kg, p.o.,) after inducing an inflammatory reaction in them by intraperitoneal injection of 20 μg of bacterial lipopolysaccharide (LPS).
Inhibition of COX-2 expression in monocytes. Percentages of inhibition (compared to the positive control in the presence of LPS, 100%) of COX-2 protein levels (expression) by the various fatty acid derivatives.

[1] = Serum cholesterol, triglycerides and glucose in SHR rats (colorimetric); assay type: in vivo, rat; settings: 200 mg/kg daily p.o., 28 days, untreated rats 100%
Procedure: In a separate experimental series, SHR rats were treated with various compounds of the present invention (200 mg/kg daily, 28 days, p.o.) and the levels of cholesterol, triglycerides and glucose in serum were measured by colorimetric methods. It was observed that these compounds induce significant (and in many cases marked) reductions in the levels of these metabolites (Table 16).
Values are expressed as percent, and in untreated (control) rats values were always considered as 100%.

lung cancer cells A549 = experiment: Growth of lung cancer cells A549 (IC50); assay type: cell-based, human; settings: 72 hours of incubation
Procedure: (§2) For the experiments shown in FIG. 1, cultured human Non Small Cell Lung Cancer cells (A549) in RPMI 1640 were used, supplemented with 10% foetal bovine serum and antibiotics, at 37° C. and 5% CO2. […] After treatment, cell count was performed and the study of the mechanisms involved in the antitumor activity of compounds was evaluated by flow cytometry. […] These values correspond to averages of three independent experiments.
(§3) These charts show the antitumor efficacy of the compounds of this invention against the growth of breast cancer cells, brain (glioma), and lung cancer. […] The other experimental conditions are identical to those described in the preceding paragraph.

[2] = tested on: brain cancer cell (glioma) U118; experiment: Brain cancer (glioma) U118 cell growth; assay type: cell-based; settings: 72 hours of incubation
Procedure: For the experiments shown in FIG. 1, cultured human Non Small Cell Lung Cancer cells (A549) in RPMI 1640 were used, supplemented with 10% foetal bovine serum and antibiotics, at 37° C. and 5% CO2. Cells were maintained in culture for 48 hours in the presence or absence of D-PUFAs and PUFAs indicated in Table 2 at a concentration of 250 µM. After treatment, cell count was performed and the study of the mechanisms involved in the antitumor activity of compounds was evaluated by flow cytometry. […] These values correspond to averages of three independent experiments.
as §3

[3] = tested on: breast cancer cells MDA-MB-231; experiment: Growth of breast cancer cells MDA-MB-231; assay type: cell-based; settings: 72 hours of incubation
Procedure: as §2, §3

TNF-α = experiment: Production of TNF-α in serum of LPS-injected C57BL6/J mice; assay type: in vivo; settings: LPS 20 μg i.p. (100%), 200 mg/kg p.o.
Text: as §1

[4] = tested on: apolipoprotein AI (apoA-I); experiment: Levels of apoA-I in SHR rats (RT-PCR); assay type: in vivo, rat; settings: 200 mg/kg day p.o., 30 days, before treatment 100%
Procedure: (§4) In a separate experimental series, it was studied the effect of D-PUFA molecules of the present invention on blood pressure of SHR rats. In these animals both, blood pressure and levels of apolipoprotein AI (apoA-I) were measured. For these experiments Spontaneously Hypertensive Rats (SHR) were treated for 30 days with vehicle (water control) or compounds of the invention (200 mg/kg day, p.o.). At the end of this period, the animals' blood pressure and serum levels of apoA-I were measured. […] For these experiments, non-invasive methods for determining blood pressure (cuff-tail method) and gene expression for apoA-I (RT-PCR) described in the literature (Terés et al., 2008) were used. The usefulness of the molecules of the present invention for the treatment of cardiovascular diseases is reinforced by its capacity for reducing the levels of serum cholesterol and triglycerides (see below).
(§5) The average values of SHR before treatment were 214 mmHg and 100% respectively.

[5] = tested on: Spontaneously Hypertensive Rats (SHR); experiment: Blood pressure of SHR rats (cuff-tail method); assay type: in vivo, rat; settings: 200 mg/kg day p.o., 30 days, before treatment 214 mmHg
Procedure: as §4, §5

Structure (SMILES) | Neuronal death (P19 cells) after treatment with NMDA (P19 cells) | Expression of α-synuclein (α-synuclein) | COX-2 protein levels (expression), percentages of inhibition compared to positive control (COX-2) | Cholesterol in serum (top number) [1] | Glucose in serum (bottom number) [1] | Triglycerides in serum (central number) [1] | pIC50 (lung cancer cells A549) | pIC50 [2] | pIC50 [3] | Production of TNF-α in serum (TNF-α) | Levels of apoA-I [4] | Blood pressure [5]
CCCCCC=CCC=CCCCCCCC(O)C(=O)OP(=O)(OCC)OCC (stereo not drawn) [182F1] | −45% | 71% | 56% | 92% | 89% | 88% | 3.45 | 3.63 | 3.51 | 86% | 192% | 198 mm Hg
CCCCCC=CCC=CCCCCCCC(C)C(=O)[O-].[Na+] (stereo not drawn) [182L1] | −32% | 80% | 67% | 89% | 94% | 93% | 3.41 | 3.64 | 3.46 | 85% | 131% | 207 mm Hg
CCCCCC=CCC=CCCCCCCC(OC=O)C(=O)OCC (stereo not drawn) [182V1] | −17% | 83% | 81% | 94% | 93% | 93% | 3.47 | 3.64 | 3.35 | 81% | 166% | 207 mm Hg
CCC=CCC=CCC=CCCCCCCC(O)C(=O)OP(=O)(OCC)OCC (stereo not drawn) [183F1] | −35% | 61% | 46% | 78% | 76% | 71% | 3.46 | 3.45 | 3.49 | 91% | 146% | 203 mm Hg
CCCCCC=CCC=CCC=CCCCC(O)C(=O)OP(=O)(OCC)OCC (stereo not drawn) [183F2] | −36% | 52% | 36% | 84% | 85% | 87% | 3.59 | 3.40 | 3.74 | 86% | 279% | 191 mm Hg
CCC=CCC=CCC=CCCCCCCC(C)C(=O)[O-].[Na+] (stereo not drawn) [183L1] | −21% | 76% | 65% | 82% | 85% | 77% | 3.55 | 3.64 | 3.51 | 86% | 125% | 205 mm Hg
CCCCCC=CCC=CCC=CCCCC(C)C(=O)[O-].[Na+] (stereo not drawn) [183L2] | −29% | 73% | 48% | 83% | 92% | 79% | 3.55 | 3.34 | 3.76 | 91% | 268% | 194 mm Hg
CCC=CCC=CCC=CCCCCCCC(OC=O)C(=O)OCC (stereo not drawn) [183V1] | −9% | 87% | 79% | 75% | 79% | 70% | 3.49 | 3.56 | 3.49 | 84% | 152% | 199 mm Hg
CCCCCC=CCC=CCC=CCCCC(OC=O)C(=O)OCC (stereo not drawn) [183V2] | −18% | 89% | 68% | 84% | 88% | 92% | 3.54 | 3.40 | 3.62 | 87% | 282% | 198 mm Hg
CCCCCC=CCC=CCC=CCC=CCCC(O)C(=O)OP(=O)(OCC)OCC (stereo not drawn) [204F1] | −46% | 52% | 41% | 76% | 84% | 81% | 3.41 | 3.56 | 3.49 | 46% | 163% | 199 mm Hg
CCCCCC=CCC=CCC=CCC=CCCC(C)C(=O)[O-].[Na+] (stereo not drawn) [204L1] | −27% | 69% | 47% | 83% | 91% | 82% | 3.49 | 3.61 | 3.48 | 49% | 188% | 197 mm Hg
CCCCCC=CCC=CCC=CCC=CCCC(OC=O)C(=O)OCC (stereo not drawn) [204V1] | −11% | 82% | 43% | 84% | 87% | 81% | 3.49 | 3.46 | 3.45 | 42% | 161% | 198 mm Hg
CCC=CCC=CCC=CCC=CCC=CCCC(O)C(=O)OP(=O)(OCC)OCC (stereo not drawn) [205F1] | −44% | 57% | 47% | 71% | 82% | 83% | 3.47 | 3.30 | 3.56 | 80% | 319% | 195 mm Hg
